Earlier results on one substance are cited in patent US20250212890A1, “COMBINATIONS OF AV3 MUTANT POLYPEPTIDES AND Bt TOXINS FOR PEST CONTROL” (Vestaron Corporation, priority 2022, published 2025).

The subject of data set [1] is crustacean and insect sodium channels. Particulars: Moran et al., Toxicon 2009.
Data set [2] deals with mammalian sodium channels. The following applies: Moran et al., Toxicon 2009.

As for Av3, in data set [1], the “selectivity for crustacean and insect sodium channels” value is reported as “high selectivity”. Besides, in data set [2], the “selectivity for mammalian sodium channels” value is “low selectivity”.
